From patent publication US20260008768A1, “UREA DERIVATIVES FOR INHIBITING NLRP3 AND USES THEREOF” (VENTUS THERAPEUTICS U.S., INC., priority 2023, published 2026)

Target: human NLRP3 (Homo sapiens, UniProt Q96P20)
Assay: Scintillation Proximity (SPA) NLRP3 Assay, displacement of 3H-MCC950
Type: binding
Conditions: Table B, activity class; displacement of 3H-MCC950 from human NLRP3
Description: Improved NLRP3 binding correlates with increased affinity for NLRP3 protein and, by extension, increased ability to interfere with its function.
SPA experiments were conducted in a total volume of 20 μL assay buffer containing 20 mM HEPES pH 7.5, 150 mM NaCl, 5 mM MgCl2, 0.01% (v/v) Tween-20, 0.01% (w/v) bovine serum albumin (BSA) and 100 μM of adenosine diphosphate (ADP). A human NLRP3 protein (350 nM) (see, e.g., Sharif et al., Nature (2019) 570:338-343; Hochheiser et al., Nature (2022) 604:184-189; Adreeva et al., Cell (2021) 184:6299-6312; Wang et al., J Exp. Med. (2021) 219:e20211147) was incubated with various concentration of compounds in 5% dimethyl sulfoxide (DMSO) final for 15 minutes at room temperature in a white half-area 96 well OptiPlate (PerkinElmer #6002290) before adding 125 nM final of 3H-MCC950. After the addition of radiolabeled MCC950, the plate was incubated for 60 minutes at room temperature before adding 0.25 mg/ml of copper-coated polyvinyltoluene SPA beads (PerkinElmer #RPNQ0095). The plate was then transferred to a microplate counter (PerkinElmer 2450 Microbeta) to collect binding data. Binding data was analyzed 6 hrs post-PVT bead addition to allow sufficient time to reach equilibrium. Specific binding was calculated from averaged duplicates by subtracting signal from wells without NLRP3 protein.
SPA NLRP3 IC50 assay results are provided in Table B. “A” activity=<1 uM; “B” activity=1-10 uM; “C” activity=>10-50 uM; “D” activity=>50 uM-100 uM; and “E” activity=>100 uM.

human NLRP3, sequence (Q96P20 whole entry): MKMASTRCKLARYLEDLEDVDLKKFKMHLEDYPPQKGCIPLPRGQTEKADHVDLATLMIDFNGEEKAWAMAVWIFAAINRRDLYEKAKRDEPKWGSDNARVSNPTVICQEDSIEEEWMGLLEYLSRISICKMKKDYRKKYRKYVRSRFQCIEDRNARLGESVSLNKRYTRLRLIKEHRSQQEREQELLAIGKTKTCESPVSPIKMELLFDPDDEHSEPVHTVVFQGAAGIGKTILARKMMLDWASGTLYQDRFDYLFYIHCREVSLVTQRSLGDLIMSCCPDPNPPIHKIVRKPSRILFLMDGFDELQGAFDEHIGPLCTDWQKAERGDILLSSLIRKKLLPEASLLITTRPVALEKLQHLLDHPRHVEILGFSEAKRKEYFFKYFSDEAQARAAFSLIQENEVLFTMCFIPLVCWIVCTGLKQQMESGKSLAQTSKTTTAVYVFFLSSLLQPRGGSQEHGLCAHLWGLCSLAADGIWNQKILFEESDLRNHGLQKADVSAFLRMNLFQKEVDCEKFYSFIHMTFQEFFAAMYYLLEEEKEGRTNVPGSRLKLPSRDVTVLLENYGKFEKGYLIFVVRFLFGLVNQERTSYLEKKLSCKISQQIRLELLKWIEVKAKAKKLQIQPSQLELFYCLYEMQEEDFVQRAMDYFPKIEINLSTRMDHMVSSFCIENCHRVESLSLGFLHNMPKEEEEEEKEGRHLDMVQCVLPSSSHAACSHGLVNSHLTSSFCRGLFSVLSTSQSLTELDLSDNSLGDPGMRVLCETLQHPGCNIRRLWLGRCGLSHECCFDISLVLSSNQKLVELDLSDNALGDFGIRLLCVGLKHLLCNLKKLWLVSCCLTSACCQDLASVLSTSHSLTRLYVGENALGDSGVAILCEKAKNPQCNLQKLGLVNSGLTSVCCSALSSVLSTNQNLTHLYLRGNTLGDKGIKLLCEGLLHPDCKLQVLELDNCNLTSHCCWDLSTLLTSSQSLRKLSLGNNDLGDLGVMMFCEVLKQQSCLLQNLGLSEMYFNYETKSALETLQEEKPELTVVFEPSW

Row | IC50 [µM] | Compound
1 | 1 to 10 | C[C@@H]1CCN(c2nnn[nH]2)C[C@@H](NC(=O)N(C)c2ccc(Cl)cc2)C1 (single isomer, unassigned) [4B*]
2 | 50 to 100 | C[C@H]1CCN(c2nnn[nH]2)C[C@H](NC(=O)N(C)c2ccc(Cl)cc2)C1 (single isomer, unassigned) [4C*]
3 | 1 to 10 | CC1CCN(c2nnn[nH]2)CC(NC(=O)N(C)c2ccc(Cl)cc2)C1 (single isomer, unassigned) [4D*]
4 | 1 to 10 | C[C@@H]1CCN(c2nnn[nH]2)C[C@@H](NC(=O)N(C)c2ccc(Cl)cc2F)C1 (single isomer, unassigned) [5B*]
5 | 50 to 100 | C[C@H]1CCN(c2nnn[nH]2)C[C@H](NC(=O)N(C)c2ccc(Cl)cc2F)C1 (single isomer, unassigned) [5C*]
6 | 1 to 10 | C[C@H]1CCN(c2nnn[nH]2)C[C@@H](NC(=O)N(C)c2ccc(Cl)cc2F)C1 (single isomer, unassigned) [5D*]
7 | 1 to 10 | C[C@@H]1CCN(c2nnn[nH]2)C[C@@H](NC(=O)N(C)c2ccc(Cl)cc2Cl)C1 (single isomer, unassigned) [7B*]
8 | 50 to 100 | C[C@H]1CCN(c2nnn[nH]2)C[C@H](NC(=O)N(C)c2ccc(Cl)cc2Cl)C1 (single isomer, unassigned) [7C*]
9 | 10 to 50 | C[C@H]1CCN(c2nnn[nH]2)C[C@@H](NC(=O)N(C)c2ccc(Cl)cc2Cl)C1 (single isomer, unassigned) [7D*]
10 | 1 to 10 | C[C@@H]1CCN(c2nnn[nH]2)C[C@@H](NC(=O)N(C)c2ccc(C3CC3)cc2)C1 (single isomer, unassigned) [8B*]
11 | > 100 | C[C@H]1CCN(c2nnn[nH]2)C[C@H](NC(=O)N(C)c2ccc(C3CC3)cc2)C1 (single isomer, unassigned) [8C*]
12 | 1 to 10 | C[C@H]1CCN(c2nnn[nH]2)C[C@@H](NC(=O)N(C)c2ccc(C3CC3)cc2)C1 (single isomer, unassigned) [8D*]
13 | > 100 | C[C@H]1CCN(c2nnn[nH]2)C[C@H](NC(=O)N(C)c2ccc(C(F)(F)F)c(F)c2)C1 (single isomer, unassigned) [9C*]
14 | 1 to 10 | C[C@@H]1CCN(c2nnn[nH]2)C[C@@H](NC(=O)N(C)c2ccc(OC(F)(F)F)cc2)C1 (single isomer, unassigned) [10B*]
15 | > 100 | C[C@H]1CCN(c2nnn[nH]2)C[C@H](NC(=O)N(C)c2ccc(OC(F)(F)F)cc2)C1 (single isomer, unassigned) [10C*]
16 | 1 to 10 | C[C@H]1CCN(c2nnn[nH]2)C[C@@H](NC(=O)N(C)c2ccc(OC(F)(F)F)cc2)C1 (single isomer, unassigned) [10D*]
17 | 1 to 10 | C[C@@H]1CCN(c2nnn[nH]2)C[C@@H](NC(=O)N(C)c2ccc(OC(F)F)cc2)C1 (single isomer, unassigned) [11B*]
18 | 50 to 100 | C[C@H]1CCN(c2nnn[nH]2)C[C@H](NC(=O)N(C)c2ccc(OC(F)F)cc2)C1 (single isomer, unassigned) [11C*]
19 | 1 to 10 | C[C@H]1CCN(c2nnn[nH]2)C[C@@H](NC(=O)N(C)c2ccc(OC(F)F)cc2)C1 (single isomer, unassigned) [11D*]
20 | 1 to 10 | C[C@@H]1CCN(c2nnn[nH]2)C[C@@H](NC(=O)N(C)c2ccc(Cl)c(F)c2)C1 (single isomer, unassigned) [12B*]
21 | 10 to 50 | C[C@H]1CCN(c2nnn[nH]2)C[C@H](NC(=O)N(C)c2ccc(Cl)c(F)c2)C1 (single isomer, unassigned) [12C*]
22 | > 100 | C[C@H]1CCN(c2nnn[nH]2)C[C@@H](NC(=O)N(C)c2ccc(Cl)c(F)c2)C1 (single isomer, unassigned) [12D*]
23 | 1 to 10 | C[C@@H]1CCN(c2nnn[nH]2)C[C@@H](NC(=O)N(C)c2ccc(C(F)F)c(F)c2)C1 (single isomer, unassigned) [22B*]
24 | 10 to 50 | C[C@H]1CCN(c2nnn[nH]2)C[C@H](NC(=O)N(C)c2ccc(C(F)F)c(F)c2)C1 (single isomer, unassigned) [22C*]
25 | 1 to 10 | C[C@H]1CCN(c2nnn[nH]2)C[C@@H](NC(=O)N(C)c2ccc(C(F)F)c(F)c2)C1 (single isomer, unassigned) [22D*]

More lines, now with the values behind:

Row | Compound | IC50 [µM]
26 | C[C@@H]1CCN(c2nnn[nH]2)C[C@@H](NC(=O)N(C)c2ccc(C(F)(F)F)c(F)c2)C1 (single isomer, unassigned) [9B*] | 1 to 10
27 | C[C@@H]1CCN(c2nnn[nH]2)C[C@@H](NC(=O)N(C)c2ccc(C(F)(F)F)cc2F)C1 (single isomer, unassigned) [13B*] | 1 to 10
28 | C[C@H]1CCN(c2nnn[nH]2)C[C@H](NC(=O)N(C)c2ccc(C(F)(F)F)cc2F)C1 (single isomer, unassigned) [13C*] | > 100
29 | C[C@H]1CCN(c2nnn[nH]2)C[C@@H](NC(=O)N(C)c2ccc(C(F)(F)F)cc2F)C1 (single isomer, unassigned) [13D*] | 1 to 10
30 | C[C@@H]1CCN(c2nnn[nH]2)C[C@@H](NC(=O)N(C)c2ccc(OC(F)(F)F)c(F)c2)C1 (single isomer, unassigned) [14B*] | 1 to 10
31 | C[C@H]1CCN(c2nnn[nH]2)C[C@H](NC(=O)N(C)c2ccc(OC(F)(F)F)c(F)c2)C1 (single isomer, unassigned) [14C*] | > 100
32 | C[C@H]1CCN(c2nnn[nH]2)C[C@@H](NC(=O)N(C)c2ccc(OC(F)(F)F)c(F)c2)C1 (single isomer, unassigned) [14D*] | 10 to 50
33 | C[C@@H]1CCN(c2nnn[nH]2)C[C@@H](NC(=O)N(C)c2ccc(OC(F)F)c(F)c2)C1 (single isomer, unassigned) [15B*] | 1 to 10
34 | C[C@H]1CCN(c2nnn[nH]2)C[C@H](NC(=O)N(C)c2ccc(OC(F)F)c(F)c2)C1 (single isomer, unassigned) [15C*] | > 100
35 | C[C@H]1CCN(c2nnn[nH]2)C[C@@H](NC(=O)N(C)c2ccc(OC(F)F)c(F)c2)C1 (single isomer, unassigned) [15D*] | 1 to 10
36 | C[C@@H]1CCN(c2nnn[nH]2)C[C@@H](NC(=O)N(C)c2ccc(OC(F)F)c(OC(F)F)c2)C1 (single isomer, unassigned) [16B*] | 1 to 10
37 | C[C@H]1CCN(c2nnn[nH]2)C[C@H](NC(=O)N(C)c2ccc(OC(F)F)c(OC(F)F)c2)C1 (single isomer, unassigned) [16C*] | 50 to 100
38 | C[C@H]1CCN(c2nnn[nH]2)C[C@@H](NC(=O)N(C)c2ccc(OC(F)F)c(OC(F)F)c2)C1 (single isomer, unassigned) [16D*] | 1 to 10
39 | C[C@@H]1CCN(c2nnn[nH]2)C[C@@H](NC(=O)N(C)c2ccc(OC(F)F)cc2F)C1 (single isomer, unassigned) [17B*] | 1 to 10
40 | C[C@H]1CCN(c2nnn[nH]2)C[C@H](NC(=O)N(C)c2ccc(OC(F)F)cc2F)C1 (single isomer, unassigned) [17C*] | 1 to 10
41 | C[C@H]1CCN(c2nnn[nH]2)C[C@@H](NC(=O)N(C)c2ccc(OC(F)F)cc2F)C1 (single isomer, unassigned) [17D*] | > 100
42 | C[C@@H]1CCN(c2nnn[nH]2)C[C@@H](NC(=O)N(C)c2ccc(C(F)F)cc2F)C1 (single isomer, unassigned) [18B*] | 1 to 10
43 | C[C@H]1CCN(c2nnn[nH]2)C[C@H](NC(=O)N(C)c2ccc(C(F)F)cc2F)C1 (single isomer, unassigned) [18C*] | 10 to 50
44 | C[C@H]1CCN(c2nnn[nH]2)C[C@@H](NC(=O)N(C)c2ccc(C(F)F)cc2F)C1 (single isomer, unassigned) [18D*] | 10 to 50
45 | C[C@@H]1CCN(c2nnn[nH]2)C[C@@H](NC(=O)N(C)c2c(F)cc(OC(F)F)cc2F)C1 (single isomer, unassigned) [19B*] | 1 to 10
46 | C[C@H]1CCN(c2nnn[nH]2)C[C@H](NC(=O)N(C)c2c(F)cc(OC(F)F)cc2F)C1 (single isomer, unassigned) [19C*] | > 100
47 | C[C@H]1CCN(c2nnn[nH]2)C[C@@H](NC(=O)N(C)c2c(F)cc(OC(F)F)cc2F)C1 (single isomer, unassigned) [19D*] | 1 to 10
48 | C[C@@H]1CCN(c2nnn[nH]2)C[C@@H](NC(=O)N(C)c2c(F)cc(C3CC3)cc2F)C1 (single isomer, unassigned) [20B*] | 1 to 10
49 | C[C@H]1CCN(c2nnn[nH]2)C[C@H](NC(=O)N(C)c2c(F)cc(C3CC3)cc2F)C1 (single isomer, unassigned) [20C*] | 10 to 50
50 | C[C@H]1CCN(c2nnn[nH]2)C[C@@H](NC(=O)N(C)c2c(F)cc(C3CC3)cc2F)C1 (single isomer, unassigned) [20D*] | 1 to 10
51 | C[C@@H]1CCN(c2nnn[nH]2)C[C@@H](NC(=O)N(C)c2ccc(C(F)(F)F)c(F)c2F)C1 (single isomer, unassigned) [21B*] | 1 to 10
52 | C[C@H]1CCN(c2nnn[nH]2)C[C@H](NC(=O)N(C)c2ccc(C(F)(F)F)c(F)c2F)C1 (single isomer, unassigned) [21C*] | > 100
53 | C[C@H]1CCN(c2nnn[nH]2)C[C@@H](NC(=O)N(C)c2ccc(C(F)(F)F)c(F)c2F)C1 (single isomer, unassigned) [21D*] | 1 to 10
